Test results from patent US9453253B2, “Methods of using isotopically labelled isoniazid for the diagnosis of mycobacterial infections” (priority 2012, dated 2016).

Assays:
[1] = tested on: Mycobacterium tuberculosis H37Rv; format: cell-based; settings: M. tuberculosis H37Rv, 1 mg/mL, 1 hour, head gas, control subtracted
[2] = tested on: M. bovis BCG; format: cell-based

## [15NH2][15NH]C(=O)c1ccncc1 [^15N2-hydrazyl-INH]
[1]
  30/28 mass signal in nitrogen gas, dependency on CFU: proportional to CFU/mL
[2]
  30/28 mass signal in nitrogen gas, dependency on CFU: proportional to CFU/mL
  30/28 mass signal in nitrogen gas, dose dependence: dependent upon dose
  30/28 mass signal in nitrogen gas, time dependence: increase in the signal over the course of an hour, which then begins to decrease by 4 hours
